Values joined by “and” are separate entries in the source; they are usually repeats but may differ in a detail not shown here. Equal entries are not always repeated.

The term melting point denotes the temperature of the solid-liquid transition. Take `O=C1C=CC(=O)c2ccccc21` [1,4-naphthoquinone]: the melting point came out at 122 °C.
Then `CCCCC` [pentane], with -130 °C; and `O=C(O)Cc1cccc(F)c1` [3-fluorophenylacetic acid], with 46 °C; and `O=C(O)C(F)(F)C(F)(F)C(F)(F)C(F)(F)C(F)(F)C(F)(F)F` [Tridecafluoroheptanoic acid], with 30 °C.
For the molecule `CCCCCCC(=O)O` [heptanoic acid], the melting point is -8 °C.
In the case of `Nc1ccc(Cl)cc1` [4-chloroaniline], the melting point stood at 70 °C.
Take `C[C@H](CS)C(=O)N1CCC[C@H]1C(=O)O` [Captopril]: the melting point worked out at 106 °C.
`Oc1ccc(Cl)cc1-c1cc[nH]n1` [4-chloro-2-(1h-pyrazol-3-yl)phenol]: the melting point came to 157 °C.
The result for `CCc1cccc(O)c1` [3-ethylphenol] reads -4 °C; that for `O=C(O)c1ccccc1C(=O)c1ccccc1` [2-benzoylbenzoic acid], 129 °C.
Take `O=C(/C=C/c1ccc(-c2ccc(Br)cc2)o1)c1ccco1`: the melting point is 165 °C.
Molecule `OB(O)c1cc(Cl)c(F)cc1F` [5-chloro-2,4-difluorobenzeneboronic acid] had a melting point of 220 °C.
Take `CC1(C)C(=O)OC2=C(CC3C4CC=C5CC(O)CCC5(C)C4CCC23C)C1c1ccccc1` (configuration not stated): the melting point turned out to be 233 °C.
The molecule `CCCCCCCCCCCCCCCCCCCCCCC` [Tricosane] registered a melting point of 49 °C.
Then `CC(=O)c1ccccc1C#N` [o-acetyl_benzonitrile], with 48 °C; and `O=P1(N(CCCl)CCCl)NCCCO1` (configuration not stated) [Cyclophosphamide], with 43 °C.
Molecule `C=C(C)C(=O)OC` [methyl_methacrylate] gave a melting point of -48 °C.
`Nc1ccc(N)nc1` [2,5-diaminopyridine] showed a melting point of 96 °C.
On to `[O-][I+3]([O-])([O-])O` [Periodic acid], for which the melting point is 122 °C.
Then `CC(C)(C)OO` [tert-Butyl hydroperoxide], with -3 °C; and `Cc1c(C2(c3cc(Br)c(O)c(Br)c3C)OS(=O)(=O)c3ccccc32)cc(Br)c(O)c1Br`, with 225 °C.
The molecule `COc1cc(C=O)cc(OC)c1` [3,5-dimethoxybenzaldehyde] had a melting point of 47 °C.
With `CC12CCC=C1C1CCC3CC(O)CCC3(C)C1CC2` (configuration not stated) [androst-14-en-3-ol], the melting point was 130 °C.
For the molecule `O=C(O)COc1ccc(Cl)cc1Cl` [(2,4-Dichlorophenoxy)acetic acid], the melting point was 138 °C.
As for `O=C(O)c1ccc2c(c1)C(=O)OC2=O` [1,2,4-benzenetricarboxylic anhydride], the melting point came out at 167 °C.
With `O=C(O)C(=O)CBr` [bromopyruvic acid], the melting point is 78 °C.
`Nc1cccc2c1C(=O)c1ccccc1C2=O` [1-aminoanthraquinone] returned a melting point of 254 °C.
Molecule `Cc1ccc(Cl)cc1` [1-Chloro-4-methylbenzene] gave a melting point of 7.5 °C.
The molecule `O=C1CN=C(c2ccccc2Cl)c2cc([N+](=O)[O-])ccc2N1` [Clonazepam] showed a melting point of 238 °C.
As for `COc1ccccc1N` [o-anisidine], the melting point came out at 6 °C.
With `CNC[C@H](O)c1cccc(O)c1` [Phenylephrine], the melting point was found to be 142 °C.
`COc1cc(C=O)cc(Br)c1O` [5-bromovanillin] displayed a melting point of 164 °C.
As for `CC(Br)C(C)(C)C` (configuration not stated) [2-bromo-3,3-dimethylbutane], the melting point is 25 °C.
`Nc1nc2c(ncn2COCCO)c(=O)[nH]1` [acyclovir] gave a melting point of 255 °C.
In the case of `Clc1nc(Cl)nc(Cl)n1` [2,4,6-Trichloro-1,3,5-triazine], the melting point is 146 °C.
In the case of `CN(C)C1=NC(=O)C(c2ccccc2)O1` (configuration not stated) [thozalinone], the melting point was 133 °C.
The molecule `Oc1c(Cl)c(Cl)c(Cl)c(Cl)c1Cl` [Pentachlorophenol] yielded a melting point of 174 °C.
As to `CCN(CC)c1ccc(C(=O)CBr)cc1` [2-bromo-4'-(diethylamino)acetophenone], the melting point worked out at 51 °C.
For the molecule `COC(=O)c1ccccc1C(N)=O` [phthalic_acid,_methylester_amide], the melting point was determined as 100 °C.
In turn, `CC(=O)Nc1ccccc1NNc1ccccc1` [N-[2-(2-phenylhydrazino)phenyl]acetamide] came in with a melting point of 168 °C.
The result for `O=c1c2ccccc2sc2ccccc12` [Thioxanthen-9-one] reads 211 °C; that for `CC(=O)OC[C@H]1O[C@H](OC(C)=O)[C@H](OC(C)=O)[C@@H](OC(C)=O)[C@@H]1OC(C)=O` [alpha-D-glucose pentaacetate], 111 °C; that for `CCCCOCC` [1-Ethoxybutane], -103 °C.
Then `COc1ccc(C(=O)O)cc1` [p-anisic_acid], with 184 °C.
`CNC(C)=O` [N-methylacetamide] displayed a melting point of 27 °C.
On to `CC(=O)CO` [hydroxyacetone], for which the melting point is -17 °C.
For the molecule `CC(=O)c1ccc(C(F)(F)F)cc1` [4'-(trifluoromethyl)acetophenone], the melting point is 32 °C.
Then `N#CNC(=N)N` [dicyandiamide], with 210 °C; and `CC(=O)Nc1ccc(C(=O)O)cc1` [4-acetamidobenzoic acid], with 260 °C; and `O=S(=O)(O)C(F)(F)F` [trifluoromethanesulfonic acid], with -40 °C.
`Cc1cc(C=O)c(C)n1-c1ccccc1` [2,5-dimethyl-1-phenylpyrrole-3-carboxaldehyde] yielded a melting point of 89 °C.
For the molecule `CC(N)=O` [acetamide], the melting point is 80 °C.
Molecule `O=[N+]([O-])c1ccc(F)cc1` [1-fluoro-4-nitrobenzene] returned a melting point of 23 °C.
For the molecule `CCOC1OC(C(N)=O)=CCC1Br` (configuration not stated) [3-bromo-2-ethoxy-3,4-dihydro-2H-pyran-6-carboxamidato], the melting point was determined as 142 °C.
The result for `Oc1c(Br)cc(Br)cc1Br` [2,4,6-tribromophenol] reads 89 °C.
Consider `NC(=O)c1cnccn1` [pyrazinamide], for which the melting point was 190 °C and 189 °C.
For the molecule `Cc1c(C)c(C)c(C)c(C)c1C` [hexamethylbenzene], the melting point is 164 °C and 168 °C.
The molecule `O=C(O)c1cc(O)ccc1O` [gentisic acid] came in with a melting point of 205 °C.
The result for `C=CCCCCCCCCCCCC` [1-tetradecene] reads -12 °C; that for `CN(C)C=O` [Dimethylformamide], -60.4 °C; that for `CCOC(=O)CC` [ethyl_propionate], -73 °C.
The molecule `CC(C)(C)C1=CC(=O)C(=O)C(C(C)(C)C)=C1` [3,5-di-tert-butyl-o-benzoquinone] returned a melting point of 115 °C.
As for `C#CCCCCCCCCC` [1-undecyne], the melting point was -25 °C.
In the case of `O=C(Cl)CCl` [chloroacetyl chloride], the melting point was -22 °C.
As to `CCC1(CC)C(=O)NC(=O)N(C)C1=O` [metharbital], the melting point was 150 °C.
The molecule `Cc1cc(C)n(CN(CCO)Cn2nc(C)cc2C)n1` [2-{bis[(3,5-dimethyl-1H-pyrazol-1-yl)methyl]amino}ethanol] displayed a melting point of 83 °C.
`Oc1cccc2cccnc12` [Quinolin-8-ol] showed a melting point of 76 °C.

Values taken from the Bradley open melting point set (2014).
